Reference: patent US20260258035A1, “FIVE-MEMBERED AND SIX-MEMBERED NITROGEN-CONTAINING COMPOUND, AND INTERMEDIATE, PREPARATION METHOD AND USE THEREOF” (HANGZHOU SYNRX THERAPEUTICS BIOMEDICAL TECHNOLOGY CO., LTD., priority 2022, published 2026)
Like-named read-outs stand apart in the source and are kept apart here.

Assays:
PARG = PARG (Homo sapiens, UniProt Q86W56); test: Biochemical assay (PARG, TFMU-ADPr substrate)
[1] = tested on: Human breast squamous carcinoma cells HCC1806; test: Cell function assay (In-Cell Western, PAR/pADPr after MMS); format: cell-based
Experimental: 2. Cell Function Assay (In-Cell Western)
• 1) Human breast squamous carcinoma cells HCC1806 (ATCC) were seeded to the 384-well plate (Corning, #3764) at 20,000 cells/well, incubated for 24 h in a CO2 (5%) incubator at 37° C. to allow for complete adherence of the cells; • 2) 120 nL compounds or DMSO were added to the 384-well plate by Echo 550 (LABCYTE, #550) (final concentrations of compounds: 30000 nM, 10000 nM, 3000 nM, 1000 nM, 300 nM, 100 nM, 30 nM, 10 nM, 3 nM, 1 nM, 0 nM), and then the cells were incubated for 1 h in a CO2 (5%) incubator at 37° C.; • 3) 40 nL MMS (methyl mesylate, Sigma, #129925)(final concentration: 0.5 mM) was added to the plate by Echo 550, and the cells were treated for 1 h in a CO2 (5%) incubator at 37° C.

[2] = 4 nM PARG, 66.2 uM TFMU-ADPr, 3 min at room temperature
[3] = HCC1806, In-Cell Western, MMS treatment, read-out: IC50 (nM) in cell function assay
[4] = HCC1806, compound 1 h then 0.5 mM MMS 1 h, PAR/pADPr antibody, In-Cell Western, read-out: IC50 (nM) in cell function assay

PARG, sequence (Q86W56 whole entry): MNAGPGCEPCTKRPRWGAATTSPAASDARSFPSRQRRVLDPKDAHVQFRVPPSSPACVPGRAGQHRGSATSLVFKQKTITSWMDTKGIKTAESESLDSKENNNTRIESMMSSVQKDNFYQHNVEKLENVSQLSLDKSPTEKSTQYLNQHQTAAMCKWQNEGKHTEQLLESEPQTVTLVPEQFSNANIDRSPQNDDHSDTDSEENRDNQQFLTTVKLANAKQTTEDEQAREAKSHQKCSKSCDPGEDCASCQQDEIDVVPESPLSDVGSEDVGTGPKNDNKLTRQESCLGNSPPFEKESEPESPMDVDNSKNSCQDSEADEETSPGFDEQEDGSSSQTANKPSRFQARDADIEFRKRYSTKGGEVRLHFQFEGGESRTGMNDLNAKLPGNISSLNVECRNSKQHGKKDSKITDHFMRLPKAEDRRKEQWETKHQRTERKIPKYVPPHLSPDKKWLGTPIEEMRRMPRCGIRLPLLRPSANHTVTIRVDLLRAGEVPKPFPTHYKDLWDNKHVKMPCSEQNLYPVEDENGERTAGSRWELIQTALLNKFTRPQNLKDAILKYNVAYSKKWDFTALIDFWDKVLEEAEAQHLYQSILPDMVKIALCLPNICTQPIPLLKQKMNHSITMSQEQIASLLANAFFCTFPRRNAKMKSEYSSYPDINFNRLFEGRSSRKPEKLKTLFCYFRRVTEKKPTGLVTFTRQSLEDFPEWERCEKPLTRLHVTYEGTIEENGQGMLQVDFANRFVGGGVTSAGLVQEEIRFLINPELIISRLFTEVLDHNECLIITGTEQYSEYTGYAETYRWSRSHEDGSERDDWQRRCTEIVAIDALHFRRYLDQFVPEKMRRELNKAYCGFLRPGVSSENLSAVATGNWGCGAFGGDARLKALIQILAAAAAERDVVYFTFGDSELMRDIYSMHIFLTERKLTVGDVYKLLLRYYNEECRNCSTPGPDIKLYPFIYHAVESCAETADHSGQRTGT

Row | SMILES | IC50 (PARG; [2]) | IC50 (PARG; PARG, TFMU-ADPr substrate) | IC50 [1, 3] | IC50 [1, 4] | IC50 ([1]; HCC1806, 1 h, read-out: IC50 (nM) in cell function assay) | IC50 ([1]; HCC1806, read-out: IC50 (nM) in cell function assay)
1 | N#CC1(NS(=O)(=O)c2ccc3c(C4CCC5(CNC5)C4)nc(-c4nnc(C(F)F)s4)n3c2)CC1 (centres unmarked) [Example 26, N-(1-cyanocyclopropyl)-3-(5-(difluoromethyl)-1,3,4-thiadiazol-2-yl)-1-(2-azaspiro[3.4]octan-6-yl)imidazo[1,5-a]pyridine-6-sulfonamide] | < 100 nM | 5.37 nM | 4690 nM | > 1000 nM |  | 
2 | CC(C)C(=O)N1CCN(c2cc(S(=O)(=O)NC3(C#N)CC3)cc3c(-c4nnc(C(F)F)s4)cnn23)CC1 [Example 27, N-(1-cyanocyclopropyl)-3-(5-(difluoromethyl)-1,3,4-thiadiazol-2-yl)-7-(4-isobutyrylpiperazin-1-yl)pyrazolo[1,5-a]pyridine-5-sulfonamide] | < 100 nM | 4.98 nM |  |  | 100 to 500 nM | 76.3 nM
3 | CC(C)C(=O)N1CCN(c2cc(S(=O)(=O)NC3(CF)CC3)cn3c(-c4nnc(C(F)F)s4)ncc23)CC1 [Example 31, 3-(5-(difluoromethyl)-1,3,4-thiadiazol-2-yl)-N-(1-(fluoromethyl)cyclopropyl)-8-(4-isobutyrylpiperazin-1-yl)imidazo[1,5-a]pyridine-6-sulfonamide] | < 100 nM | 0.84 nM | 4.7 nM | < 100 nM |  | 
4 | CC(C)C(=O)N1CCN(c2cc(S(=O)(=O)NC3(C(F)F)CC3)cn3c(-c4nnc(C(F)F)s4)ncc23)CC1 [Example 33, 3-(5-(difluoromethyl)-1,3,4-thiadiazol-2-yl)-N-(1-(difluoromethyl)cyclopropyl)-8-(4-isobutyrylpiperazin-1-yl)imidazo[1,5-a]pyridine-6-sulfonamide] | < 100 nM | 6.52 nM | 155 nM | 100 to 500 nM |  | 
5 | N#CC1(NS(=O)(=O)c2cc(N3CCC4(CC3)COC4)c3cnc(-c4nnc(C(F)F)s4)n3c2)CC1 [Example 39, N-(1-cyanocyclopropyl)-3-(5-(difluoromethyl)-1,3,4-thiadiazol-2-yl)-8-(2-oxa-7-azaspiro[3.5]nonan-7-yl)imidazo[1,5-a]pyridine-6-sulfonamide] | < 100 nM | 2.72 nM | 13.2 nM | < 100 nM |  | 
6 | N#CC1(NS(=O)(=O)c2cc(N3CCC(F)(F)CC3)c3cnc(-c4nnc(C(F)F)s4)n3c2)CC1 [Example 40, N-(1-cyanocyclopropyl)-3-(5-(difluoromethyl)-1,3,4-thiadiazol-2-yl)-8-(4,4-difluoropiperidin-1-yl)imidazo[1,5-a]pyridine-6-sulfonamide] | < 100 nM | 8.37 nM | 309 nM | 100 to 500 nM |  | 
7 | C[C@@H]1CN(c2cc(S(=O)(=O)NC3(CF)CC3)cn3c(-c4nnc(C(F)F)s4)ncc23)CCN1C(=O)C1(C)CC1 [Example 63, (R)-3-(5-(difluoromethyl)-1,3,4-thiadiazol-2-yl)-N-(1-(fluoromethyl)cyclopropyl)-8-(3-methyl-4-(1-methylcyclopropane-1-carbonyl)piperazin-1-yl)imidazo[1,5-a]pyridine-6-sulfonamide] | < 100 nM | 2.12 nM | 1.36 nM | < 100 nM |  | 
8 | N#CC1(NS(=O)(=O)c2cc(N3CCC(CO)CC3)c3cnc(-c4nnc(C(F)F)s4)n3c2)CC1 [Example 66, N-(1-cyanocyclopropyl)-3-(5-(difluoromethyl)-1,3,4-thiadiazol-2-yl)-8-(4-(hydroxymethyl)piperidin-1-yl)imidazo[1,5-a]pyridine-6-sulfonamide] | < 100 nM | 2.89 nM | 18.2 nM | < 100 nM |  | 
9 | C[C@@H]1CN(c2cc(S(=O)(=O)NC3(C)CC3)cn3c(-c4nnc(C(F)F)s4)ncc23)CCN1C(=O)C1(C)CC1 [Example 71, (R)-3-(5-(difluoromethyl)-1,3,4-thiadiazol-2-yl)-8-(3-methyl-4-(1-methylcyclopropane-1-carbonyl)piperazin-1-yl)-N-(1-methylcyclopropyl)imidazo[1,5-a]pyridine-6-sulfonamide] | < 100 nM | 1.32 nM | 0.67 nM | < 100 nM |  | 
10 | C[C@@H]1CN(c2cc(S(=O)(=O)NC3(C#N)CC3)cn3c(-c4nnc(C(F)F)s4)ncc23)CCN1C(=O)C1(F)CC1 [Example 77, (R)-N-(1-cyanocyclopropyl)-3-(5-(difluoromethyl)-1,3,4-thiadiazol-2-yl)-8-(4-(1-fluorocyclopropane-1-carbonyl)-3-methylpiperazin-1-yl)imidazo[1,5-a]pyridine-6-sulfonamide] | < 100 nM | 24 nM | 14.8 nM | < 100 nM |  | 
11 | CC(C)C(=O)N1CCN(c2cc(S(=O)(=O)NC3(C#N)CC3)cn3c(-c4nnc(C(F)F)s4)ncc23)C[C@@H]1C [Example 85, (S)-N-(1-cyanocyclopropyl)-3-(5-(difluoromethyl)-1,3,4-thiadiazol-2-yl)-8-(4-isobutyryl-3-methylpiperazin-1-yl)imidazo[1,5-a]pyridine-6-sulfonamide] | < 100 nM | 15.2 nM | 13.7 nM | < 100 nM |  | 
12 | CC1(C(=O)N2C3CC2CN(c2cc(S(=O)(=O)NC4(C#N)CC4)cn4c(-c5nnc(C(F)F)s5)ncc24)C3)CC1 [Example 87, N-(1-cyanocyclopropyl)-3-(5-(difluoromethyl)-1,3,4-thiadiazol-2-yl)-8-(6-(1-methylcyclopropane-1-carbonyl)-3,6-diazabicyclo[3.1.1]heptan-3-yl)imidazo[1,5-a]pyridine-6-sulfonamide] | < 100 nM | 7.24 nM | 49.9 nM | < 100 nM |  | 

Further lines, with some results ahead:

Row | IC50 (PARG; [2]) | IC50 (PARG; PARG, TFMU-ADPr substrate) | IC50 [1, 3] | IC50 [1, 4] | SMILES | IC50 ([1]; HCC1806, 1 h, read-out: IC50 (nM) in cell function assay) | IC50 ([1]; HCC1806, read-out: IC50 (nM) in cell function assay)
13 | < 100 nM | 0.76 nM | 2.01 nM | < 100 nM | CC(C)C(=O)N1CCN(c2cc(S(=O)(=O)NC3(CF)CC3)cn3c(-c4nnc(C(F)F)s4)cnc23)CC1 [Example 14, 3-(5-(difluoromethyl)-1,3,4-thiadiazol-2-yl)-N-(1-(fluoromethyl)cyclopropyl)-8-(4-isobutyrylpiperazin-1-yl)imidazo[1,2-a]pyridine-6-sulfonamide] |  | 
14 | < 100 nM | 2.37 nM | 145 nM | 100 to 500 nM | CC1(O)CC2(CCN(c3cc(S(=O)(=O)NC4(C#N)CC4)cn4c(-c5nnc(C(F)F)s5)ncc34)CC2)C1 [Example 53, N-(1-cyanocyclopropyl)-3-(5-(difluoromethyl)-1,3,4-thiadiazol-2-yl)-8-(2-hydroxy-2-methyl-7-azaspiro[3.5]nonan-7-yl)imidazo[1,5-a]pyridine-6-sulfonamide] |  | 
15 | < 100 nM | 3.75 nM | 3.52 nM | < 100 nM | C[C@@H]1CN(c2cc(S(=O)(=O)NC3(C#N)CC3)cn3c(-c4nnc(C(F)F)s4)ncc23)CCN1C(=O)C1(C)CC1 [Example 62, (R)-N-(1-cyanocyclopropyl)-3-(5-(difluoromethyl)-1,3,4-thiadiazol-2-yl)-8-(3-methyl-4-(1-methylcyclopropane-1-carbonyl)piperazin-1-yl)imidazo[1,5-a]pyridine-6-sulfonamide] |  | 
16 | < 100 nM | 3.44 nM | 6.92 nM | < 100 nM | CC(C)(F)C(=O)N1CCN(c2cc(S(=O)(=O)NC3(C#N)CC3)cn3c(-c4nnc(C(F)F)s4)ncc23)CC1 [Example 64, N-(1-cyanocyclopropyl)-3-(5-(difluoromethyl)-1,3,4-thiadiazol-2-yl)-8-(4-(2-fluoro-2-methylpropanoyl)piperazin-1-yl)imidazo[1,5-a]pyridine-6-sulfonamide] |  | 
17 | < 100 nM | 8.83 nM | 40.1 nM | < 100 nM | N#CC1(NS(=O)(=O)c2cc(N3CCOCC3)c3cnc(-c4nnc(C(F)F)s4)n3c2)CC1 [Example 67, N-(1-cyanocyclopropyl)-3-(5-(difluoromethyl)-1,3,4-thiadiazol-2-yl)-8-morpholinoimidazo[1,5-a]pyridine-6-sulfonamide] |  | 
18 | < 100 nM | 25.1 nM | 34.7 nM | < 100 nM | N#CC1(NS(=O)(=O)c2cc(N3CCC(O)CC3)c3cnc(-c4nnc(C(F)F)s4)n3c2)CC1 [Example 68, N-(1-cyanocyclopropyl)-3-(5-(difluoromethyl)-1,3,4-thiadiazol-2-yl)-8-(4-hydroxypiperidin-1-yl)imidazo[1,5-a]pyridine-6-sulfonamide] |  | 
19 | < 100 nM | 6.61 nM | 1.5 nM | < 100 nM | CC(C)C(=O)N1CCN(c2cc(S(=O)(=O)NC3(C#N)CC3)cn3c(-c4nnc(C(F)F)s4)ncc23)C[C@H]1C [Example 74, (R)-N-(1-cyanocyclopropyl)-3-(5-(difluoromethyl)-1,3,4-thiadiazol-2-yl)-8-(4-isobutyryl-3-methylpiperazin-1-yl)imidazo[1,5-a]pyridine-6-sulfonamide] |  | 
20 | < 100 nM | 16.6 nM | 11.4 nM | < 100 nM | C[C@H]1CN(c2cc(S(=O)(=O)NC3(C#N)CC3)cn3c(-c4nnc(C(F)F)s4)ncc23)CCN1C(=O)C1(C)CC1 [Example 86, (S)-N-(1-cyanocyclopropyl)-3-(5-(difluoromethyl)-1,3,4-thiadiazol-2-yl)-8-(3-methyl-4-(1-methylcyclopropane-1-carbonyl)piperazin-1-yl)imidazo[1,5-a]pyridine-6-sulfonamide] |  | 
